Measurements published in US9657033B2, “Tetrahydronaphthyridine and related bicyclic compounds for inhibition of RORγ activity and the treatment of disease” (Merck Sharp & Dohme Corp., priority 2012, dated 2017).
pEC50: −log10 of the molar value.

What was measured:
RORγ-LBD [1] = molecular target: T1, RORγ-LBD (Homo sapiens (Human), UniProt P51449); assay: RORγ-Ligand Binding Domain (LBD) TR-FRET Assay Protocol II; assay type: biochemical; conditions: purified RORγ-LBD, SRC1 peptide, overnight at 4° C.
Experimental: Part II—Procedures for RORγ-Ligand Binding Domain TR-FRET Assay Protocol II
HIS-tagged RORγ-LBD protein was expressed in SF9 cells using a baculovirus expression system. The RORγ-LBD protein was purified by […]. Separately, SF9 cells not expressing recombinant protein were lysed in TBS buffer (25 mM Tris, pH 8.0, 150 mM NaCl) under sonication. The lysate was added to the purified RORγ-LBD in a volume equivalent of 0.75 μL lysate (from 30,000 SF9 cells) per 75 femtomol of RORγ-LBD protein. The resulting mixture was diluted in assay buffer (50 mM Tris pH 7.0, 50 mM KCl, 1 mM EDTA, 0.1 mM DTT, 0.01% BSA) to obtain RORγ-LBD protein at a final concentration of 3 nM.
Compounds to be tested were injected to the assay plate using Acoustic Droplet Ejection technology by Echo 550 liquid handler (Labcyte, Calif.).
A stock of biotinylated-LXXLL peptide from coactivator SRC1 (Biotin-[…]) was prepared in assay buffer and added to each well (100 nM final concentration). A solution of Europium tagged anti-HIS antibody (1.25 nM final concentration) and APC-conjugated streptavidin (8 nM final concentration) were also added to each well.
The final assay mixture was incubated overnight at 4° C., and the fluorescence signal was measured on an Envision plate reader: (Excitation filter=340 nm; APC emission=665 nm; Europium emission=615 nm; dichroic mirror=D400/D630; delay time=100 μs, integration time=200 μs). The EC50 value for test compounds was calculated from the quotient of the fluorescence signal at 665 nm divided by the fluorescence signal at 615 nm

RORγ-LBD [2] = molecular target: T1, RORγ-LBD; assay: RORγ-Ligand Binding Domain (LBD) TR-FRET Assay Protocol I; assay type: biochemical; conditions: RORγ-LBD lysate from SF9 cells, SRC1-2 peptide
Experimental: Part I—Procedures for RORγ-Ligand Binding Domain TR-FRET Assay Protocol I
Recombinant,HIS-tagged RORγ-LBD was expressed in SF9 cells using a baculovirus expression system. Cells were lysed and the lysate was used as a source for RORγ-LBD for the assay. A 1:80 dilution of RORγ-LBD lysate in assay buffer (25 mM HEPES pH 7.0, 100 mM NaCl, 0.01% Tween, 0.1% BSA) was prepared and 5 μL was added to each well (RORγ-LBD final concentration ˜3 nM). Control wells received lysate from SF9 cells not expressing RORγ-LBD.
Compounds to be tested were diluted to 100× final test concentration in DMSO and further diluted to 4× final test concentration using assay buffer to provide the test compound mixture. An aliquot (5 μL) of the test compound mixture was added to each well.
A 4× stock of biotinylated-LXXLL peptide from SRC1-2 (Biotin-[…]) was prepared in assay buffer and a 5 μL aliquot added to each well (450 nM final concentration). A 4× solution of europium tagged anti-HIS antibody (2 nM final concentration) and APC conjugated streptavidin (60 nM final concentration) were prepared and a 5 μL aliquot added to each well.
The final assay mixture was incubated for 4 hours to overnight, and the fluorescence signal was measured on an Envision plate reader: (Excitation filter=340 nm; APC emission=665 nm; Europium emission=615 nm; dichroic mirror=D400/D630; delay time=100 μs, integration time=200 μs).
EC50 values for test compounds were calculated from the quotient of the fluorescence signal at 665 nm divided by the fluorescence signal at 615 nm using GraphPad Prism software

T1 sequence (P51449 269-508): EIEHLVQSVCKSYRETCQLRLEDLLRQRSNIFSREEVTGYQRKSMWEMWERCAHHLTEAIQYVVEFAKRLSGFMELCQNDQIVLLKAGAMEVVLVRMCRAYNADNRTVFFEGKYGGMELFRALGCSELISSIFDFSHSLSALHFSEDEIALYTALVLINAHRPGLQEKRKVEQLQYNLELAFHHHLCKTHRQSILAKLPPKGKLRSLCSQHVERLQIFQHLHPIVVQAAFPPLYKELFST

| Compound | pEC50 (RORγ-LBD [1]) | pEC50 (RORγ-LBD [2]) |
| --- | --- | --- |
| CC(=O)NC[C@H]1CN(S(=O)(=O)c2cccc(C)c2)c2cc(NC(=O)c3c(F)cccc3Cl)cnc2O1 [Compound 16, (S)-N-(3-(acetamidomethyl)-1-(m-tolylsulfonyl)-2,3-dihydro-1H-pyrido[2,3-b][1,4]oxazin-7-yl)-2-chloro-6-fluorobenzamide] | 6.91 | 6.47 |
| CC(=O)NC[C@H]1CN(S(=O)(=O)c2cccc(C)c2)c2cc(NC(=O)[C@@H](C)c3ccccc3)cnc2O1 [Compound 17, (S)-N-((S)-3-(Acetamidomethyl)-1-(m-tolylsulfonyl)-2,3-dihydro-1H-pyrido[2,3-b][1,4]oxazin-7-yl)-2-phenylpropanamide] | 6.97 | 6.12 |
| CC1COc2ncc(NC(=O)c3c(F)cccc3Cl)cc2N1S(=O)(=O)c1cccc(C#N)c1 (stereo not drawn) [Compound 20] | 6.97 | 6.41 |
| Cc1cccc(S(=O)(=O)N2C[C@H](C)Oc3ncc(NC(=O)c4c(F)cccc4C(F)(F)F)cc32)c1 [Compound 24] | 8.22 | 6.88 |
| C[C@H]1CN(S(=O)(=O)c2cccc(C#N)c2)c2cc(NC(=O)c3c(F)cccc3Cl)cnc2O1 [Compound 25] | 7.15 | 5.99 |
| C[C@H]1CN(S(=O)(=O)c2ccc(F)cc2)c2cc(NC(=O)c3c(F)cccc3Cl)cnc2O1 [Compound 26] | 7.20 | 6.08 |
| C[C@H]1CN(S(=O)(=O)c2cccc(C3CC3)c2)c2cc(NC(=O)c3c(F)cccc3Cl)cnc2O1 [Compound 27] | 7.96 | 7.70 |

Now from value to compound:

| pEC50 (RORγ-LBD [1]) | pEC50 (RORγ-LBD [2]) | Compound |
| --- | --- | --- |
| 7.14 | 6.09 | Cc1cccc(S(=O)(=O)N2C[C@H](C)Oc3ncc(NC(=O)[C@@H](C)c4ccccc4)cc32)c1 [Compound 28] |
| 6.41 | 5.52 | C[C@H](C(=O)Nc1cnc2c(c1)N(S(=O)(=O)c1ccc(F)cc1)C[C@H](C)O2)c1ccccc1 [Compound 29] |
| 6.69 | 6.15 | O=C(Nc1cnc2c(c1)N(S(=O)(=O)c1ccc(F)cc1)CCC2)c1c(F)cccc1F [Compound 36, 2,6-difluoro-N-(5-(4-fluorobenzenesulfonyl)-5,6,7,8-tetrahydro-[1,5]naphthyridin-3-yl)benzamide] |
| 7.80 | 7.28 | Cc1cccc(S(=O)(=O)N2CCCc3ncc(NC(=O)c4c(F)cccc4Cl)cc32)c1 [Compound 37, 2-chloro-6-fluoro-N-(5-(m-tolylsulfonyl)-5,6,7,8-tetrahydro-1,5-naphthyridin-3-yl)benzamide] |
| 7.21 | 6.38 | Cc1cccc(S(=O)(=O)N2CCCc3ncc(NC(=O)[C@@H](C)c4ccccc4)cc32)c1 [Compound 38, (S)-2-phenyl-N-(5-(m-tolylsulfonyl)-5,6,7,8-tetrahydro-1,5-naphthyridin-3-yl)propanamide] |
